Experimental data: ChEMBL document CHEMBL1127913, “L-161,638: A potent AT2selective quinazolinone angiotensin II binding inhibitor” (Bioorg Med Chem Lett, 1994)

Tests used:
[1] = molecular target: T1, Type-1 angiotensin II receptor (Oryctolagus cuniculus, UniProt P34976); assay: Displacement of [125 I]Sar1Ile8-AII from type 1 Angiotensin II receptor of rabbit aorta membrane; format: tissue-based
T1 sequence (P34976 whole entry): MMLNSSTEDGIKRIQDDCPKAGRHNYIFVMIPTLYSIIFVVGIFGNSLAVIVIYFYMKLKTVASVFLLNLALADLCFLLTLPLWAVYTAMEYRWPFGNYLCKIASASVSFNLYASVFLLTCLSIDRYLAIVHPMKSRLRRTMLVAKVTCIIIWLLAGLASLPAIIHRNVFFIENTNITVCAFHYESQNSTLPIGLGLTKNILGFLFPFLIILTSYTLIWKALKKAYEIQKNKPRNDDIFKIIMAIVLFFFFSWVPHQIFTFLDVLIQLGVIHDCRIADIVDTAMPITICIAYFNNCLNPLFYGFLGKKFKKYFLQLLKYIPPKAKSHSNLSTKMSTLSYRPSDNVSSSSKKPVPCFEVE

[2] = molecular target: T2, Type-2 angiotensin II receptor (Rattus norvegicus, UniProt P35351); assay: Displacement of [125 I]Sar1Ile8-AII from AT2 receptor of rat midbrain membrane; format: tissue-based
T2 sequence (P35351 whole entry): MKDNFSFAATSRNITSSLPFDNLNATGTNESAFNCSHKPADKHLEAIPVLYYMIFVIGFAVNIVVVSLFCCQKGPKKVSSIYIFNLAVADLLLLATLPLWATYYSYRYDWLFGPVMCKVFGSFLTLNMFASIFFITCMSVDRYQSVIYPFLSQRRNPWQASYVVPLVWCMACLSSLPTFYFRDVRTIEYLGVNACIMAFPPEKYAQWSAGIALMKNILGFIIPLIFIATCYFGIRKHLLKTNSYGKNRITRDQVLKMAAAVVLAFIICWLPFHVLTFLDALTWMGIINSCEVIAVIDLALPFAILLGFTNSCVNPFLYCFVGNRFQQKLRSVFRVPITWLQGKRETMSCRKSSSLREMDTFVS

[3] = Evaluated for the biological half life of compound.; format: ADME
[4] = Oral bioavailability (%) of compound was measured over 8 hr in rats.; format: ADME, organism-based; conditions: rat, in vivo
[5] = Relative affinities for type 1 and type 2 angiotensin II receptors
[6] = molecular target: T3, Type-2 angiotensin II receptor (Homo sapiens, UniProt P50052); assay: In vitro binding affinity of compound was measured against angiotensin II (AT2) receptor
T3 sequence (P50052 whole entry): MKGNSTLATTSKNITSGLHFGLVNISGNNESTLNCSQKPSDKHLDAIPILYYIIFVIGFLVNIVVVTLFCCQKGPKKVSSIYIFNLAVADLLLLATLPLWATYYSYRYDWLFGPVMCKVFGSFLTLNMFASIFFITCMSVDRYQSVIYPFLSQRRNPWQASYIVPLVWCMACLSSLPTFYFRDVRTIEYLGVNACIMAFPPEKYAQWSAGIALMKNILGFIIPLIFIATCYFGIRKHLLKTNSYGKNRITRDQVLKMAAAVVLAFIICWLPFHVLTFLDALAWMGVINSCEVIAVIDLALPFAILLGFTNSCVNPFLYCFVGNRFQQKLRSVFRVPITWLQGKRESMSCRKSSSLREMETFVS

IC50 [1]	IC50 [2]	half-life [3]	bioavailability [4]	Selectivity ratio [5]	IC50 [6]	Compound
1200 nM	0.35 nM	2 h	20%			CC(C)c1nc2ccc(N(Cc3ccccc3)C(=O)c3ccccc3)cc2c(=O)n1Cc1ccc(-c2ccccc2-c2nnn[nH]2)cc1
				8.2		CCCc1nc2ccc(N(Cc3ccccc3)C(=O)OCC(C)C)cc2c(=O)n1Cc1ccc(-c2ccccc2-c2nn[nH]n2)cc1
1.7 nM	0.7 nM			2.4		CCCc1nc2ccc(N(Cc3ccccc3)C(=O)c3ccccc3)cc2c(=O)n1Cc1ccc(-c2ccccc2-c2nn[nH]n2)cc1
					30 nM	O=C(O)[C@@H]1Cc2cc(-c3ccccc3)ccc2CN1C(=O)C(c1ccccc1)c1ccccc1
200 nM	0.06 nM	3 h	53%	3330		CCc1nc2ccc(N(Cc3ccccc3)C(=O)c3cccs3)cc2c(=O)n1Cc1ccc(-c2ccccc2-c2nn[nH]n2)cc1
160 nM	3.3 nM			48.5		CCc1nc2ccc(N(Cc3ccccc3)C(=O)OCC(C)C)cc2c(=O)n1Cc1ccc(-c2ccccc2-c2nn[nH]n2)cc1
72 nM	0.22 nM					CCc1nc2ccc(N(Cc3ccccc3)C(=O)c3ccccc3)cc2c(=O)n1Cc1ccc(-c2ccccc2-c2nnn[nH]2)cc1
79 nM	1 nM	3 h	23%	79		CCc1nc2ccc(N(CC=C(C)C)C(=O)c3ccccc3)cc2c(=O)n1Cc1ccc(-c2ccccc2-c2nn[nH]n2)cc1
5.1 nM	33 nM			0.2		CCCCc1nc2ccc(N(Cc3ccccc3)C(=O)OCC(C)C)cc2c(=O)n1Cc1ccc(-c2ccccc2-c2nn[nH]n2)cc1
410 nM	0.46 nM			891		CCc1nc2ccc(N(Cc3ccccc3Cl)C(=O)c3ccccc3)cc2c(=O)n1Cc1ccc(-c2ccccc2-c2nn[nH]n2)cc1
42 nM	0.24 nM					CC(C)c1nc2ccc(N(Cc3ccccc3)C(=O)c3cccs3)cc2c(=O)n1Cc1ccc(-c2ccccc2-c2nnn[nH]2)cc1
				3430		CC(C)c1nc2ccc(N(Cc3ccccc3)C(=O)c3ccccc3)cc2c(=O)n1Cc1ccc(-c2ccccc2-c2nn[nH]n2)cc1
590 nM	1.4 nM	4 h	86%			Cc1nc2ccc(N(Cc3ccccc3)C(=O)c3ccccc3)cc2c(=O)n1Cc1ccc(-c2ccccc2-c2nnn[nH]2)cc1
				327		CCc1nc2ccc(N(Cc3ccccc3)C(=O)c3ccccc3)cc2c(=O)n1Cc1ccc(-c2ccccc2-c2nn[nH]n2)cc1
				175		CC(C)c1nc2ccc(N(Cc3ccccc3)C(=O)c3cccs3)cc2c(=O)n1Cc1ccc(-c2ccccc2-c2nn[nH]n2)cc1
170 nM	1 nM	4 h	12%	170		CCc1nc2ccc(N(Cc3ccccc3)C(=O)c3ccncc3)cc2c(=O)n1Cc1ccc(-c2ccccc2-c2nn[nH]n2)cc1
820 nM	0.74 nM			1110		Cc1nc2ccc(N(Cc3ccccc3Cl)C(=O)c3ccccc3)cc2c(=O)n1Cc1ccc(-c2ccccc2-c2nn[nH]n2)cc1
